# Measured values taken from US12448388B2, “PRMT5 inhibitors and uses thereof” (Gilead Sciences, Inc., priority 2023, dated 2025).
# Where two headings read alike, the source gives them in different places.
# Test system: HCT116 MTAP-deleted cell lines
# Assay: Cell viability assay (CellTiter-Glo, 7 days), HCT116 MTAP-deleted
# Format: cell-based
# Conditions: Homo sapiens, HCT-116, HCT116 MTAP-deleted, class symbols, read-out: CC50
# Outline: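 HCT116 MTAP-deleted and wild-type cells exposed to serially diluted compound for 7 days at 37 °C, 5% CO2. Viability read by CellTiter-Glo luminescence; CC50 derived per line, with selectivity comparing WT to MTAP-deleted, limited solubility can inflate values marked *.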
Structure (SMILES),CC50 (cell viability),CC50 (cell viability assay)
"CN(C(=O)c1cc2c(cc1F)nc(N)c1cncn12)[C@@H]1COCc2nc(C(F)(F)F)ccc21 [Ff-281, (S)-4-amino-7-fluoro-N-methyl-N-(2-(trifluoromethyl)-5,8-dihydro-6H-pyrano[3,4-b]pyridin-5-yl)imidazo[1,5-a]quinoxaline-8-carboxamide]",< 0.1 µM,–
"Cc1ncn2c1c(N)nc1ccc(C(=O)N3C[C@H](C)O[C@@H]4Cc5cc(OC(F)(F)F)ccc5[C@@H]43)cc12 (single isomer, unassigned) [Fg-23]",–,< 0.1 µM
"Nc1nc2cc(F)c(C(=O)N3CCO[C@@H]4Cc5cc(C(F)(F)F)cc(F)c5[C@@H]43)cc2n2cncc12 [Ff-539, (4-amino-7-fluoroimidazo[1,5-a]quinoxalin-8-yl)((4aS,9aR)-5-fluoro-7-(trifluoromethyl)-2,3,9,9a-tetrahydroindeno[2,1-b][1,4]oxazin-4(4aH)-yl)methanone]",–,< 0.1 µM
"C[C@H]1CN(C(=O)c2cc3c(cc2F)nc(N)c2cncn23)[C@H]2c3ccc(C(F)F)c(F)c3C[C@H]2O1 (single isomer, unassigned) [Ff-171]",< 0.1 µM,–
"Nc1nc2cc(F)c(C(=O)N3CCC[C@H]4Oc5cc(OC(F)(F)F)ccc5[C@H]43)cc2n2cncc12 (single isomer, unassigned) [Ff-394]",–,0.1 to 1 µM
"C[C@H]1OC[C@@H](N(C)C(=O)c2cc3c(cc2Cl)nc(N)c2cncn23)c2ccc(C(F)(F)F)cc21 (racemic) [Ff-284, Rac-4-amino-7-chloro-N-methyl-N-((1R,4S)-1-methyl-7-(trifluoromethyl)isochroman-4-yl)imidazo[1,5-a]quinoxaline-8-carboxamide]",< 0.1 µM,–
"Nc1nc2ccc(C(=O)N3CCOC[C@@H]3c3ccc(C(F)(F)F)cc3)cc2n2cnc(F)c12 [Ff-103, (S)-(4-amino-3-fluoroimidazo[1,5-a]quinoxalin-8-yl)(3-(4-(trifluoromethyl)phenyl)morpholino)methanone]",0.1 to 1 µM,–
"Nc1nc2cc(F)c(C(=O)N3CCC[C@@H]4OCc5cc(-c6ccn(C(F)(F)F)n6)ccc5[C@@H]43)cc2n2cncc12 (racemic) [Ff-294, Rac-(4-amino-7-fluoroimidazo[1,5-a]quinoxalin-8-yl)((4aS,10bS)-8-(1-(trifluoromethyl)-1H-pyrazol-3-yl)-2,3,4,4a,6,10b-hexahydro-1H-isochromeno[4,3-b]pyridin-1-yl)methanone]",< 0.1 µM,–
"C[C@@H]1C[C@@H]2Oc3cc(OC(F)(F)F)ccc3[C@@H]2N(C(=O)c2cc3c(cn2)nc(N)c2cncn23)C1 [Ff-507, (4-aminoimidazo[1,5-a]pyrido[3,4-e]pyrazin-8-yl)((3R,4aS,9bS)-3-methyl-7-(trifluoromethoxy)-3,4,4a,9b-tetrahydrobenzofuro[3,2-b]pyridin-1(2H)-yl)methanone]",–,< 0.1 µM
"C[C@@H]1CN(C(=O)c2cc3c(cc2F)nc(N)c2cncn23)[C@H]2c3ccc(C(F)F)c(F)c3C[C@H]2O1 [Ff-170, (4-amino-7-fluoroimidazo[1,5-a]quinoxalin-8-yl)((2R,4aS,9aR)-7-(difluoromethyl)-8-fluoro-2-methyl-2,3,9,9a-tetrahydroindeno[2,1-b][1,4]oxazin-4(4aH)-yl)methanone]",< 0.1 µM,–
"Nc1nc2cc(F)c(C(=O)N3CCOCC3c3ccc(C(F)(F)F)cn3)cc2n2cncc12 (centres unmarked) [Ff-128, (4-amino-7-fluoroimidazo[1,5-a]quinoxalin-8-yl)(3-(5-(trifluoromethyl)pyridin-2-yl)morpholino)methanone]",< 0.1 µM,–
"Cn1ccc(N(Cc2ncc(C(F)(F)F)cc2F)C(=O)c2cc3c(cc2F)nc(N)c2cncn23)n1 [Ff-307, 4-amino-7-fluoro-N-((3-fluoro-5-(trifluoromethyl)pyridin-2-yl)methyl)-N-(1-methyl-1H-pyrazol-3-yl)imidazo[1,5-a]quinoxaline-8-carboxamide]",< 0.1 µM,–
"Nc1nc2cc(F)c(C(=O)N3CCO[C@@H]4CCc5ccccc5[C@@H]43)cc2n2cncc12 (relative stereo) [Ff-427, cis-2,3,4a,5,6,10b-hexahydrobenzo[f][1,4]benzoxazin-1-yl-(4-amino-7-fluoro-imidazo[1,5-a]quinoxalin-8-yl)methanone]",–,0.1 to 1 µM
"CN(C(=O)c1cc2c(cc1F)nc(N)c1cncn12)[C@@H]1COc2cc(-c3cnc(C(F)(F)F)s3)ccc21 [Ff-232, (S)-4-amino-7-fluoro-N-methyl-N-(6-(2-(trifluoromethyl)thiazol-5-yl)-2,3-dihydrobenzofuran-3-yl)imidazo[1,5-a]quinoxaline-8-carboxamide]",< 0.1 µM,–
"Cc1ncn2c1c(N)nc1cc(Cl)c(C(=O)N3CCC[C@@H]4Oc5nc(C(F)(F)F)ccc5[C@@H]43)cc12 [Ff-364, (4-amino-7-chloro-3-methylimidazo[1,5-a]quinoxalin-8-yl)((4aS,9bS)-7-(trifluoromethyl)-3,4,4a,9b-tetrahydrofuro[2,3-b:4,5-b′]dipyridin-1(2H)-yl)methanone]",< 0.1 µM,–
"Cc1ncc2c(N)nc3cc(F)c(C(=O)N4CCC[C@@H]5Oc6cc(C(F)(F)F)ccc6[C@@H]54)cc3n12 (racemic) [Ff-99, Rac-(4-amino-7-fluoro-1-methylimidazo[1,5-a]quinoxalin-8-yl)(7-(trifluoromethyl)-3,4,4a,9b-tetrahydrobenzofuro[3,2-b]pyridin-1(2H)-yl)methanone]",< 0.1 µM,–
"Nc1nc2cc(F)c(C(=O)N3CCC[C@@H]4Oc5cc(C(F)(F)F)ccc5[C@@H]43)cc2n2c(F)ncc12 [Ff-622, (4-amino-1,7-difluoroimidazo[1,5-a]quinoxalin-8-yl)((4aS,9bS)-7-(trifluoromethyl)-3,4,4a,9b-tetrahydrobenzofuro[3,2-b]pyridin-1(2H)-yl)methanone]",–,< 0.1 µM
"C[C@@H]1CN(C(=O)c2cc3c(cn2)nc(N)c2cncn23)[C@H]2c3ccc(OC(F)(F)F)cc3C[C@H]2O1 (single isomer, unassigned) [Ff-185]",< 0.1 µM,–
"Nc1nc2cc(F)c(C(=O)N3C[C@H](F)CC[C@@H]3c3ccc(C(F)(F)F)cn3)cc2n2cncc12 (single isomer, unassigned) [Ff-244]",< 0.1 µM,–
"CN(C(=O)c1cc2c(cc1F)nc(N)c1cncn12)C1COCc2nc(Br)ccc21 (centres unmarked) [Ff-275, 4-amino-N-(2-bromo-5,8-dihydro-6H-pyrano[3,4-b]pyridin-5-yl)-7-fluoro-N-methylimidazo[1,5-a]quinoxaline-8-carboxamide]",< 0.1 µM,–
"C[C@@H]1CN(C(=O)c2cc3c(cn2)nc(N)c2cncn23)[C@H]2c3ccc(C(F)(F)F)cc3C[C@H]2O1 [Ff-98, (4-aminoimidazo[1,5-a]pyrido[3,4-e]pyrazin-8-yl)((2R,4aS,9aR)-2-methyl-7-(trifluoromethyl)-2,3,9,9a-tetrahydroindeno[2,1-b][1,4]oxazin-4(4aH)-yl)methanone]",< 0.1 µM,–
"Nc1nc2cc(F)c(C(=O)N3CCC[C@@H]4Oc5cc(C(F)(F)F)ccc5[C@@H]43)cc2n2c(Cl)ncc12 (single isomer, unassigned) [Ff-646]",–,< 0.1 µM
"Cn1cc(N(Cc2ccc(C(F)(F)F)cc2F)C(=O)c2cc3c(cc2F)nc(N)c2cncn23)c(Cl)n1 [Ff-421, 4-amino-N-(3-chloro-1-methyl-pyrazol-4-yl)-7-fluoro-N-[[2-fluoro-4-(trifluoromethyl)phenyl]methyl]imidazo[1,5-a]quinoxaline-8-carboxamide]",–,< 0.1 µM
